“Also recorded” adds a separate entry of the source. Read-outs that look alike come from different tables or passages of the source. No end group written: not given here.
Experiments:
[1] = test system: CRF-induced CREB phosphorylation in striatal neurons; test: Block of CRF-induced CREB phosphorylation; assay type: cell-based, rat
Akt/PKB = conditions: cited from earlier work
Description: (§1) Supplement pone.0018114.s002.xlsx, sheet "Sheet1" | column: Target (notes)

[2] = test system: mGluR1/5 mediated calcium transienst; conditions: 5 mM as printed; ref unpublished observations; cited from earlier work
Description: as §1

[3] = test system: STR-induced CREB phosphorylation; test: Block of stressin-1-induced CREB phosphorylation; assay type: cell-based, rat; conditions: CP154526 100 nM; stressin-1 70 nM, 15 min
CRFR1 = biological target: CRFR1; parameters: method as in 5 sources, ref 26 = [26]; PMID 9918582; 26 Perrin MH Sutton SW Cervini LA Rivier JE Vale WW 1999 Comparison of an agonist, urocortin, and an antagonist, astressin, as radioligands for characterization of corticotropin-releasing factor recep ||| ref [73] (a number printed in a supplementary file, which may have a reference list of its own: not looked up in the article's list) ||| ref [74] (a number printed in a supplementary file, which may have a reference list of its own: not looked up in the article's list) ||| ref [75] (a number printed in a supplementary file, which may have a reference list of its own: not looked up in the article's list) ||| ref [76] (a number printed in a supplementary file, which may have a reference list of its own: not looked up in the article's list); conditions: cited from earlier work
CRFR2 = conditions: cited from earlier work
Description: as §1

[4] = test system: depolarization-induced CREB phosphorylation; parameters: method as in 3 sources, ref 36 = [36]; PMID 11226322; doi:10.1073/pnas.051634198; 36 Wu GY Deisseroth K Tsien RW 2001 Activity-dependent CREB phosphorylation: convergence of a fast, sensitive calmodulin kinase pathway and a slow, less sensitive mitogen-activated protein kinase path ||| ref [36] (a number printed in a supplementary file, which may have a reference list of its own: not looked up in the article's list) ||| ref [71] (a number printed in a supplementary file, which may have a reference list of its own: not looked up in the article's list); conditions: 2 µM; cited from earlier work
[5] = test system: ISO-induced cAMP accumulation; test: Block of ISO-induced cAMP accumulation; assay type: cell-based, rat; conditions: SQ22536 90 µM; ISO 10 µM; IBMX 75 µM
PKA = conditions: cited from earlier work
Description: as §1

[6] = test system: CREB phosphorylation in cultured striatal neurons; assay type: cell-based, rat
[7] = test system: cAMP in cultured striatal neurons; test: cAMP assay (Parameter cAMP kit) in cultured striatal neurons; assay type: cell-based, rat; conditions: IBMX 75 µM
[8] = test system: CREB phosphorylation in cultured striatal neurons; conditions: ISO via a Gαs pathway in striatal neurons; cited from earlier work
Procedure: To test for a Gβγ-dependent mechanism in CRF-induced CREB phosphorylation, we utilized the Gβγ-specific inhibitor gallein (75 µM). […] To ensure that the effect of gallein was specific to CRF and not dampening all G-protein signaling, we stimulated our neurons with ISO (10 µM) in the presence of gallein. […] Indeed, this was in fact the ...

PI3K = conditions: 100 nM; cited from earlier work
Description: as §1

CRF receptor 1 = CRF receptor 1 (UniProt P34998); conditions: cited from earlier work
CRF receptor 1, sequence (P34998 24-415): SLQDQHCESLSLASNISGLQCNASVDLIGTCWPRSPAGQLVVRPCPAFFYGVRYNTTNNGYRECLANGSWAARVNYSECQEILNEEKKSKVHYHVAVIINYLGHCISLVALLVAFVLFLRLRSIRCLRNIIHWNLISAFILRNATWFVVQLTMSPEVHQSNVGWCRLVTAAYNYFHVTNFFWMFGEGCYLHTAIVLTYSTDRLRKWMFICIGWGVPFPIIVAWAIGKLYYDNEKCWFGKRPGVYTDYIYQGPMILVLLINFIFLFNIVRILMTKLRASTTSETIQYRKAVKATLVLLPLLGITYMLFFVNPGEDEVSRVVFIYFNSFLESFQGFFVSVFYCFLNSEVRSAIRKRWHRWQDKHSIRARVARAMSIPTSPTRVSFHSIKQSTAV

[9] = test system: depolarization-induced CREB phosphorylation; assay type: cell-based
[10] = test system: total CREB in cultured striatal neurons; test: Immunocytochemistry of total CREB; assay type: cell-based, rat; conditions: CRF 40 nM, 15 min, vs vehicle; P = 0.67, Student's two-tailed T-test
[11] = test system: CREB in cerebellar and hippocampal neurons; conditions: cited from earlier work
Description: Separate from CREB/MAPK signaling, CRF also affects the activity of various other kinases, second messengers, ion channels and neurotransmitter receptors [45]–[51]. This diversity in cellular effects is not surprising when one considers the ability of CRF ...

[12] = test system: rewarding effects of drugs of abuse / sucrose reward; conditions: cited from earlier work
Description: Human individuals with a history of chronic stress are more likely to become addicts, and previously abstinent addicts are more likely to relapse following exposure to an acute stressor [1]–[3]. […] And while research thus far has focused on the NAc, CRF neurotransmission is also an essential component to connectivity in the dorsal striatum [19]–[22].

[13] = inhibitor 5 µM, 30 min prior and concurrently, CRF 15 min
[14] = inhibitor 100 nM, 30 min prior and concurrently, CRF 15 min
[15] = inhibitor 500 nM, 30 min prior and concurrently, CRF 15 min, data not shown
[16] = inhibitor 1 µM, 30 min prior and concurrently, CRF 15 min, data not shown
[17] = inhibitor 10 µM, 30 min prior and concurrently, CRF 15 min

Q: Which “effect on CRF-induced CREB phosphorylation” value [1, 13] does the source give for CCN(CC)CCCCN1c2ccccc2Oc2ccc(Cl)cc21 [10-DEBC] here?
A: failed to affect CRF-induced CREB phosphorylation

Q: What about the IC50 (Akt/PKB) of the same compound?
A: 2000 to 6000 nM

Q: With CC(=O)OCOC(=O)CN(CC(=O)OCOC(C)=O)c1ccccc1OCCOc1ccccc1N(CC(=O)OCOC(C)=O)CC(=O)OCOC(C)=O [BAPTA-AM] as the compound, how does the “effect on CRF-induced CREB phosphorylation” value [1, 13] read?
A: failed to block CRF-induced CREB phosphorylation; also recorded: not affected

Q: What about the “effect on mGluR1/5 mediated calcium transients” value [2] of the same compound?
A: Calcium (5 mM prevents mGluR1/5 mediated calcium transienst)

Q: For CCCCN(CC)c1nc(C)nc2c1c(C)cn2-c1c(C)cc(C)cc1C [CP154526], which “effect on CRF-induced CREB phosphorylation” value [1, 14] is on record?
A: eliminated CRF-induced CREB phosphorylation; also recorded: blocked

Q: What about the “effect on STR-induced CREB phosphorylation” value [3] of the same compound?
A: blocked

Q: And the Ki (CRFR1)?
A: 2.7 nM

Q: What about the Ki (CRFR2) of the same compound?
A: > 10000 nM

Q: With Cc1cncc2cccc(S(=O)(=O)N3CCCNC[C@@H]3C)c12 [H-1152] as the compound, how does the “effect on CRF-induced CREB phosphorylation” value [1, 15] read?
A: failed to affect CRF-induced CREB phosphorylation

Q: Which results are given for COc1ccc(S(=O)(=O)N(CCO)c2ccccc2CN(C)C/C=C/c2ccc(Cl)cc2)cc1 [KN-93]?
A: effect on CRF-induced CREB phosphorylation ([1]; inhibitor 2 µM, 30 min prior and concurrently, CRF 15 min): had no effect on CRF-induced CREB phosphorylation; also recorded: did not affect CRF-induced CREB phosphorylation; effect on depolarization-induced CREB phosphorylation [4]: blocks depolarization-induced CREB phosphorylation

Q: With CCCCCCOC(=O)[C@]1(O)C[C@@H]2O[C@@]1(C)n1c3ccccc3c3c4c(c5c6ccccc6n2c5c31)C(=O)NC4 [KT5720] as the compound, how does the “effect on CRF-induced CREB phosphorylation” value [1, 16] read?
A: failed to eliminate CRF-induced CREB phosphorylation

Q: For COc1cccc(-c2cc(=O)c3ccccc3o2)c1N [PD98059], which “effect on CRF-induced CREB phosphorylation” value ([1]; inhibitor 25 µM, 30 min prior and concurrently, CRF 15 min, data not shown) is on record?
A: yielded a similar result

Q: Which results are given for Nc1ncnc2c1ncn2C1CCCO1 (stereo not shown) [SQ22536]?
A: effect on CRF-induced CREB phosphorylation ([1]; inhibitor 90 µM, 30 min prior and concurrently, CRF 15 min): had no effect on CRF-induced CREB phosphorylation; also recorded: failed to affect CRF-induced CREB phosphorylation; effect on ISO-induced cAMP formation [5]: completely blocked ISO-induced cAMP accumulation; also recorded: completely blocked ISO-induced cAMP formation

Q: Which “effect on CRF-induced CREB phosphorylation” value [1, 17] does the source give for N#CC(=C(/N)Sc1ccccc1N)/C(C#N)=C(/N)Sc1ccccc1N [U0126] here?
A: blocked CRF-induced CREB phosphorylation

Q: Which “effect on CRF-induced CREB phosphorylation” value [1, 17] does the source give for CCN(CC)CC.Nc1ncnc2c1ncn2[C@@H]1O[C@@H]2COP(O)(=S)O[C@H]2[C@H]1O (stereo partly shown) [cAMPS-Rp, triethylammonium salt] here?
A: failed to eliminate CRF-induced CREB phosphorylation

Q: What about the EC50 (PKA) of the same compound?
A: 11000 to 16000 nM

Q: With C=C[C@@]1(C)CC(=O)[C@]2(O)[C@@]3(C)[C@@H](O)CCC(C)(C)[C@@H]3[C@H](O)[C@H](OC(C)=O)[C@@]2(C)O1 [forskolin] as the compound, how does the CREB phosphorylation ([6]; AC agonist, 25 µM) read?
A: CREB phosphorylation stimulated

Q: Which cAMP concentration ([7]; ISO 10 µM, 15 min, positive control) does the source give for CC(C)NCC(O)c1ccc(O)c(O)c1 (stereo not shown) [isoproterenol] here?
A: significant increase in cAMP

Q: And the CREB phosphorylation [8]?
A: leads to CREB phosphorylation

Q: With COC(=O)C1=C(C)NC(C)=C(C(=O)OC)C1c1ccccc1[N+](=O)[O-] [nifedipine] as the compound, how does the “effect on CRF-induced CREB phosphorylation” value [1, 13] read?
A: had no effect on CRF-induced CREB phosphorylation; also recorded: not affected

Q: Which “effect on CRF-induced CREB phosphorylation” value [1, 15] does the source give for COC[C@H]1OC(=O)c2coc3c2[C@@]1(C)C1=C(C3=O)[C@@H]2CCC(=O)[C@@]2(C)C[C@H]1OC(C)=O [wortmannin] here?
A: failed to affect CRF-induced CREB phosphorylation

Q: What about the PI3K inhibition (PI3K) of the same compound?
A: PI3K (100 nM inhibits PI3K)

Q: With “Corticotropin releasing factor (from UniProt P06850)” as the compound, how does the Kd (CRF receptor 1) read?
A: 7.5 nM

Q: Which results are given for “PKI, 14–22 amide: cell permeable peptide PKA inhibitor (SGRTGRRNA-NH2; not fully specified (N-terminus); also: myristoylated, site not given here; UniProt P61925 14-22, looked up, fragment)”?
A: effect on CRF-induced CREB phosphorylation [1, 16]: failed to eliminate CRF-induced CREB phosphorylation; Ki (PKA): 36 nM

Q: With antisauvagine-30 as the compound, how does the “effect on CRF-induced CREB phosphorylation” value [1, 14] read?
A: failed to block CRF-induced CREB phosphorylation; also recorded: had no effect on CRF-induced CREB phosphorylation

Q: What about the Kd (CRFR1) of the same compound?
A: 154 nM

Q: And the Kd (CRFR2)?
A: 1.4 nM

Q: For astressin, which “effect on CRF-induced CREB phosphorylation” value ([1]; inhibitor 50 nM, 30 min prior and concurrently, CRF 15 min) is on record?
A: completely abolished CRF-induced CREB phosphorylation; also recorded: blocked

Q: What about the Ki (CRFR1) of the same compound?
A: 1.6 to 2 nM

Q: What about the Ki (CRFR2) of the same compound?
A: 1.5 to 2.8 nM

Q: For cholera toxin [CTX], which “pCREB after toxin alone” value [6] is on record?
A: transient increase in pCREB on its own

Q: What about the “pCREB signal after toxin alone” value [6] of the same compound?
A: 2809.7±104.5

Q: What about the “effect on CRF-induced CREB phosphorylation” value [1] of the same compound?
A: blocked CRF-induced CREB phosphorylation; also recorded: complete block of CRF-induced CREB phosphorylation

Q: What about the “effect on 60 mM K+ depolarization-induced (MAPK-dependent) CREB phosphorylation” value [9] of the same compound?
A: had no effect on MAPK-dependent CREB phosphorylation; also recorded: unaffected

Q: Which “time constant τ of CRF-induced CREB phosphorylation” value ([6]; 40 nM CRF, time course) does the source give for corticotropin releasing factor [CRF] here?
A: ~3.5 min

Q: And the CREB phosphorylation ([6]; CRF 40 nM, 15 min, vs vehicle (NS), p<0.0001, ~25 cells per group)?
A: significantly increased CREB phosphorylation; also recorded: exhibited increased CREB phosphorylation

Q: And the “share of striatal neurons with shift in pCREB fluorescence intensity” value ([6]; CRF 40 nM, 15 min, cumulative histogram)?
A: approximately 80%

Q: What about the “effect of extended exposure on CREB phosphorylation” value ([6]; CRF 40 nM, 1 hr) of the same compound?
A: apparent desensitization

Q: And the “CREB phosphorylation, NAc enriched culture” value ([6]; NAc "enriched" cultures, data not shown)?
A: similarly robust increases in CREB phosphorylation

Q: And the EC50 ([6]; cultured striatal neurons from 1- to 2-day old rat pups, 8-10 d.i.v., nuclear pCREB (Ser133) immunofluorescence, 15 min, nonlinear curve fit)?
A: 0.3 nM

Q: What about the “CREB phosphorylation, dorsal striatum enriched culture” value ([6]; dorsal striatum "enriched" cultures, data not shown) of the same compound?
A: similarly robust increases in CREB phosphorylation

Q: What about the “CREB phosphorylation in mCherry-transfected neurons” value ([6]; neurons transfected with mCherry alone) of the same compound?
A: robust CRF-induced CREB phosphorylation

Q: What about the cAMP concentration ([7]; CRF 40 nM, time course of pCREB) of the same compound?
A: failed to induce any measurable increase in cAMP concentration

Q: What about the “cAMP formation in the presence of MβCD” value ([7]; CRF 4 µM, 15 min, MβCD 10 mM) of the same compound?
A: increased cAMP concentrations; also recorded: significant increase in cAMP formation

Q: And the “cAMP formation in the presence of MβCD relative to isoproterenol” value ([7]; CRF 4 µM, 15 min, MβCD 10 mM)?
A: not to the levels seen with isoproterenol

Q: And the cAMP accumulation ([7]; CRF, various concentrations up to and including 400 nM, 15 min)?
A: failed to increase cAMP accumulation; also recorded: failed to induce a significant accumulation of cAMP

Q: What about the “total CREB staining” value [10] of the same compound?
A: had no effect on total CREB staining; also recorded: showed no change in total CREB staining

Q: What about the “binding affinity of CRF for CRFR1” value (CRFR1) of the same compound?
A: 5 to 10 nM

Q: What about the CREB activation [11] of the same compound?
A: activate CREB

Q: What about the “effect on incentive salience of a sucrose reward” value ([12]; CRF acting in NAc) of the same compound?
A: enhances the incentive salience of a sucrose reward

Q: And the “effect on rewarding effects of drugs of abuse” value [12]?
A: potentiate the rewarding effects of drugs of abuse

Q: With pertussis toxin [PTX] as the compound, how does the “effect on CRF-induced CREB phosphorylation” value ([1]; PTX overnight (18 hr) pretreatment, 0.5 µng/µL, 500 ng/mL) read?
A: did not alter CRF-mediated CREB phosphorylation; also recorded: did not affect CRF-induced pCREB

Reference: article PMC3063246, “Corticotropin Releasing Factor-Induced CREB Activation in Striatal Neurons Occurs via a Novel Gβγ Signaling Pathway” (PLoS ONE, 2011)
